Measurements: US20240197897A1, “HETEROTANDEM BICYCLIC PEPTIDE COMPLEXES” (Bicycle Tx Limited, priority 2021, published 2024)
Values belong to the molecule of their own block, whether it stands above or below them. Starred links: 1 amine or outer side, 2 acyl side, 3 side chain; linkers in the order of their positions; H or OH if unused. Positions of bridges follow the written chain, without caps; N, C: chain ends. Non-standard residues stand in square brackets, D forms with d. Chains are numbered I, II in the order given. No end group written: not given here. *: point of attachment. TBMT = 2,4,6-tris(bromomethyl)-s-triazine, molecular scaffold, C(c1nc(C[*:2])nc(C[*:3])n1)[*:1]; TATA = O=C(CC[*:1])N1CN(C(=O)CC[*:2])CN(C(=O)CC[*:3])C1; Hyp = O=C(O)[C@@H]1C[C@@H](O)CN1; hArg = N=C(N)NCCCC[C@H](N)C(=O)O; Cba = N[C@@H](CC1CCC1)C(=O)O; Pent4ynoyl = C#CCCC(=O)*

Experiments:
[1] = NK cytotoxicity assay (NK:HT1080-luc co-culture, luciferase readout); type: cell-based, human; settings: NK:HT1080-luc co-culture, 24 hours, four-parameter logistic regression; FIGS. 2-4, 6-8, 10; read-out: EC50 NK cytotoxicity (tumor cell killing)
Protocol: (§1) Heterotandem bicyclic peptide complexes were evaluated for NK functional readouts (cytotoxicity and cytokine secretion) in NK-tumor cell line co-cultures.
(§2) NK cells were isolated using a negative isolation kit (STEMCELL™ Technologies 17955) from the total PBMC population purified from whole blood. NK cell pellet was then resuspended in DMEM medium (Corning™ 10-013-CV) with 10% heat-inactivated fetal bovine serum (FBS; Corning® 35-011-CV), 10 mM HEPES (Gibco™ 15-630-080), and 1% Penicillin Streptomycin (Corning™ 30-002-CI), and 50 IU/mL human IL-2 (Miltenyi Biotec® 130-097-748), at a concentration of 4×10^5 cells/mL. For the NK cell cytotoxicity assays, 50 μL (2×10^4) of cell suspension was plated in the 96-well plate (Grenier® Bio One™ 655090) containing 50 μl (4×10^3) HT1080-luc cells (ATCC® CCL-121-luc2) in DMEM (Gibco™ 11875-093; with L-glutamine) with 10% heat-inactivated fetal bovine serum (FBS; Corning® 35-011-CV), 10 mM HEPES (Gibco™ 15-630-080), and 1% Penicillin Streptomycin (Corning™ 30-002-CI). […] The plates were then incubated for 24 hours at 37° C., 5% CO2. Post-incubation, plates was centrifuged at 250×g for 5 minutes and 100 μl supernatant discarded. Samples were then incubated 10 minutes with 50 μl Bright-Glo™ Luciferase Assay system (Promega™ E2620). Luminescence upon excitation at 570 nm was read using a CLARIOstar® plate-reader with MARS Data Analysis Software™. Data was fit to a four-parameter non-linear regression in GraphPad Prism™ 8.0.2 to generate an EC50 value.

HT1080-luc cells = test: as above; type: cell-based, human; settings: in comparison to NK:HT1080-luc co-culture without heterotandem complex (NK-TICA)
Protocol: as §1, §2

NK cells = test: Degranulation assay (CD107a surface expression on NK cells co-cultured with A549); type: cell-based, human; settings: for upregulation of CD107a on NK cell surface: NK cells with A549 cells, post-treatment, FIG. 1
Protocol: Tumor cells can be recognized and killed by CD8+T-cytotoxic and NK cells through the immune secretion of lytic granules that kill target cells. This process involves the fusion of the granule membrane with the cytoplasmic membrane of the immune effector cell, resulting in surface exposure of CD107a (LAMP1). Membrane expression of CD107a constitutes a marker of immune cell activation and cytotoxic degranulation. EphA2/NKp46 or EphA2/CD16a heterotandem bicyclic peptide complexes were evaluated for activation of NK cells using a degranulation assay.
On the day of the experiment, medium was prepared by supplementing RPMI-1640 (Gibco™ 11875-093; with L-glutamine) with 10% heat-inactivated fetal bovine serum (FBS; Corning® 35-011-CV), 10 mM HEPES (Gibco™ 15-630-080), and 1% Penicillin Streptomycin (Corning™ 30-002-CI), herein referred to as working medium. Previously isolated human peripheral blood mononuclear cells (PBMCs), from whole blood, were quick thawed in a water bath and washed once at 500 rpm for 5 minutes in 10 mL of prewarmed working medium. PBMC pellet was then resuspended to concentration of 5×10^6 cells/mL in working medium and rested overnight (12-18 hours) horizontally in a tissue-culture coated flask (T-183; CELLTREAT Scientific 229351). Moreover, Ephrin type-A receptor (EphA2) expressing human lung carcinoma cell line A549 (ATCCR CCL-185; cells were grown and maintained according to manufacturer's recommendation) were detached from the culture vessel using Trypsin/EDTA and washed once at 500 rpm for 5 minutes in 15 mL of prewarmed working medium. Cell pellet was then resuspended in working medium at a concentration of 1×10^5 cells/mL. Subsequently, 100 μL of cell suspension was plated in a flat-bottom tissue-culture coated 96-well plate (Greiner CellStar® 655180) and rested overnight (12-18 hours).
Post-overnight incubation, PBMCs were removed from the flask and washed once at 500 rpm for 5 minutes in 10 mL of prewarmed working medium. […]

[2] = target: FcγRIIIA (also known as CD16a) (human) (UniProt P08637); test: cell-based or functional assay
Sequence of FcγRIIIA (also known as CD16a) (human) (P08637 17-254): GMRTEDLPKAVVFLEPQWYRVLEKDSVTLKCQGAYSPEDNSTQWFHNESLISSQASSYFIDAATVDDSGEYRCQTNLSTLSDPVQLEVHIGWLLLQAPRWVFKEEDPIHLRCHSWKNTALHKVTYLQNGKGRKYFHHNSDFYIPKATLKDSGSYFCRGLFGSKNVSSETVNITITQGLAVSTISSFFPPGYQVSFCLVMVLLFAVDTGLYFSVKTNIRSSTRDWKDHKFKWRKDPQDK

NKp46 (human) = NKp46 (human) (UniProt O76036); test: cell-based or functional assay
Sequence of NKp46 (human) (O76036 22-304): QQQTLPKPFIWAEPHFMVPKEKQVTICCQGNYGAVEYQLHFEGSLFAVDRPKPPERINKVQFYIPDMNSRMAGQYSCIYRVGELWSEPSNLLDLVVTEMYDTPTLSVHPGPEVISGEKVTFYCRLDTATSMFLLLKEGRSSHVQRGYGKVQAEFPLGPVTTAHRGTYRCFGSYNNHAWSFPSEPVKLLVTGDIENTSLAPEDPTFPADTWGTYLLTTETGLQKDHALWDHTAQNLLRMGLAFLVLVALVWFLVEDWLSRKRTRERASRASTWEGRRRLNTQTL

[3] = target: EPH receptor A2 (ephrin type-A receptor 2) (human) (UniProt P29317); test: cell-based or functional assay
Sequence of EPH receptor A2 (ephrin type-A receptor 2) (human) (P29317 24-976): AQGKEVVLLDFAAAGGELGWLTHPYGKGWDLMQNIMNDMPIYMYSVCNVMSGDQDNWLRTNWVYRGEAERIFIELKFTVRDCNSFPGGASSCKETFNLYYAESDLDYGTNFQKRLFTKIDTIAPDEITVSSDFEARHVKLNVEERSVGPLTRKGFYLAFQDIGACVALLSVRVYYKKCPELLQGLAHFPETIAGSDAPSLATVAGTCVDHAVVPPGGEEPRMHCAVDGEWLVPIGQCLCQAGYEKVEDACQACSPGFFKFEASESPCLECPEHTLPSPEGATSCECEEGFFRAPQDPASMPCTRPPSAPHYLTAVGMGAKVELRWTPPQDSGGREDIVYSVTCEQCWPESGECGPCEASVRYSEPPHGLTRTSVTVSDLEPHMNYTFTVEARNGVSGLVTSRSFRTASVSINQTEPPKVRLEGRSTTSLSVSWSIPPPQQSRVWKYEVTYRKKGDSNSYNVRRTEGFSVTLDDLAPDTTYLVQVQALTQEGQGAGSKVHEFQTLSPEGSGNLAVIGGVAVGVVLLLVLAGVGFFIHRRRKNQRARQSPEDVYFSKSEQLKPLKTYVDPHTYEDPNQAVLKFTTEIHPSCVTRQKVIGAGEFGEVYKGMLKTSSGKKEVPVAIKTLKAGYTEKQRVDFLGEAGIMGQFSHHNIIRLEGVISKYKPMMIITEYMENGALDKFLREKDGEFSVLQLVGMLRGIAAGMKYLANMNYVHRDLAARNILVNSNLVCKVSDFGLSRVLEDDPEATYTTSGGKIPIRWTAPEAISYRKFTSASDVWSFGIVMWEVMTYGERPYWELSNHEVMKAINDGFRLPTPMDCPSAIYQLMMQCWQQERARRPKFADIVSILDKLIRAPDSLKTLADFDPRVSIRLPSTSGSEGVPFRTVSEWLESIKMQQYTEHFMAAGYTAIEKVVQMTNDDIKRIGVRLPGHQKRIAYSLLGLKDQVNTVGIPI

Molecule: CC(C)C[C@@H]1NC(=O)[C@H](Cc2ccc(O)cc2)NC(=O)[C@H](CC(=O)O)NC(=O)[C@@H]2CCCN2C(=O)[C@H](CC(C)C)NC(=O)[C@H](Cc2ccc(O)cc2)NC(=O)[C@@H](NC(=O)[C@H](C)N)CSCCC(=O)N2CN3CN(C2)C(=O)CCSC[C@@H](C(=O)N[C@@H](C)C(=O)N[C@H](CCCCNC(=O)CCc2cn(CCOCCOCCOCCN(CCOCCOCCOCCC(=O)N[C@@H](C)C(=O)N[C@@H](CCCCNC(=N)N)C(=O)N[C@@H](CC(=O)O)C(=O)N[C@H]4CSCCC(=O)N5CN6CN(C5)C(=O)CCSC[C@H](NC(=O)[C@H](CC(C)C)NC(=O)[C@@H]5CCCN5C(=O)[C@H](CC(N)=O)NC(=O)[C@H](C(C)C)NC(=O)[C@H](CC(C)C)NC(=O)[C@@H]5C[C@@H](O)CN5C4=O)C(=O)N[C@@H](CC(C)C)C(=O)N[C@@H](Cc4c[nH]cn4)C(=O)N4CCC[C@H]4C(=O)N[C@H](CC(=O)O)C(=O)N[C@@H](Cc4c[nH]c5ccccc45)C(=O)N[C@@H](CCCCNC(=N)N)C(=O)N[C@H](C(N)=O)CSCCC6=O)CCOCCOCCOCCn4cc(CCC(=O)NCCCC[C@@H](NC(=O)[C@H](C)NC(=O)[C@@H]5CSCCC(=O)N6CN7CN(C6)C(=O)CCSC[C@H](NC(=O)[C@H](CC(C)C)NC(=O)[C@H](Cc6ccc(O)cc6)NC(=O)[C@H](CC(=O)O)NC(=O)[C@@H]6CCCN6C(=O)[C@H](CC(C)C)NC(=O)[C@H](Cc6ccc(O)cc6)NC(=O)[C@@H](NC(=O)[C@H](C)N)CSCCC7=O)C(=O)NCC(=O)N[C@@H](CC(=O)O)C(=O)N[C@@H](CCC(=O)O)C(=O)N[C@@H](Cc6ccc(O)cc6)C(=O)N5)C(N)=O)nn4)nn2)C(N)=O)NC(=O)[C@H](Cc2ccc(O)cc2)NC(=O)[C@H](CCC(=O)O)NC(=O)[C@H](CC(=O)O)NC(=O)CNC(=O)[C@H](CSCCC3=O)NC1=O [BCY15664]
EC50 [1]: 0.021 nM
effect on tumor cell killing by NK cells, in words (HT1080-luc cells): dose-dependent NK cell response to kill
upregulation of CD107a on NK cell surface (NK cells): dose-dependent upregulation of CD107a

Molecule: BCY15911: EphA2 specific peptide BCY9594 linked to two CD16a specific peptides (BCY13886) via N-(acid-PEG3)-N-bis(PEG3-azide) linker (peptide 1 A[hArg]DC[Hyp]LVNPLCLHP[dD]W[hArg]C; peptide 2 ACVGLEELGPCSDLCAK(Pent4ynoyl); linker I:4-I:11-I:18 via TATA; linker II:2-II:11-II:15 via TBMT; also: chain 1 N-terminus and chain 2 K(PYA) joined through N-(acid-PEG3)-N-bis(PEG3-azide) linker, two copies of chain 2)
upregulation of CD107a on NK cell surface (NK cells): dose-dependent upregulation of CD107a
EC50 (NK cells; NK cells with EphA2 expressing A549 cells, 4 hours, flow cytometry, read-out: EC50 Degranulation Geometric Mean CD107a): 99.8 nM

B1: heterotandem bicyclic peptide complex BCY20793 (peptide)
peptide 1: A[hArg]DC[Hyp]LVNPLCLHP[dD]W[hArg]C
peptide 2: Ac-CY[Cba]PDYLC[dA]DEYCK(Pent4ynoyl)
peptide 3: ACRWHFSEPCGAWCAK(Pent4ynoyl)
modifications: linker I:4-I:11-I:18, II:1-II:8-II:13 via TATA; linker III:2-III:10-III:14 via TBMT; also: three peptides joined on N-(PEG3-acid)-N-(PEG3-azide)-N-(PEG3-NH-AcAz) linker (triazole to PYA of chains 2 and 3)
EC50, NK cytotoxicity assay (HT1080-luc luminescence) [2]: 0.0065 nM
EC50, NK cytotoxicity assay (HT1080-luc luminescence) (NKp46 (human)): 0.0065 nM

EC50 Degranulation Geometric Mean CD107a [2]: 99.8 nM
EC50 Degranulation Geometric Mean CD107a [3]: 99.8 nM
B2: heterotandem bicyclic peptide complex BCY15911 (peptide)
peptide 1: A[hArg]DC[Hyp]LVNPLCLHP[dD]W[hArg]C
peptide 2: ACVGLEELGPCSDLCAK(Pent4ynoyl)
modifications: linker I:4-I:11-I:18 via TATA; linker II:2-II:11-II:15 via TBMT; also: EphA2:CD16a 1:2, two copies of chain 2 on the linker, X5, X17: HyP or HArg, linker at chain B 17 to a chain's N-terminus via N-(acid-PEG3)-N-bis(PEG3-azide) linker
